Results published in US20040171566A1, “Antisense modulation of p38 mitogen activated protein kinase expression” (priority 1999, published 2004).
In the oligonucleotide strings, read from the 5' end, every base follows the letter of its sugar. An asterisk marks phosphorothioate; unmarked linkages are phosphodiester. Other units and linkages are bracketed, terminal groups are in braces. A string of capitals states the bases alone. e = 2'-O-(2-methoxyethyl) (MOE); [5mC] = 5-methylcytosine; d = 2'-deoxy (DNA)

Key:
[1] = tested on: human p38β mRNA; assay: Human p38β mRNA expression in T-24 cells; details: for % P38β mRNA EXPRESSION: initial screen of human p38α oligonucleotides
[2] = tested on: human p38α mRNA; assay: Human p38α mRNA expression in T-24 cells; details: for % P38α mRNA EXPRESSION: initial screen of human p38α oligonucleotides
[3] = dose 50 nM, relative to control oligonucleotide = 100%
[4] = dose 100 nM, relative to control oligonucleotide = 100%
[5] = dose 200 nM, relative to control oligonucleotide = 100%
[6] = initial screen of human p38β oligonucleotides

Row | Sequence | % P38β mRNA EXPRESSION [1] [%] | % P38α mRNA EXPRESSION [2] [%] | % p38β mRNA Expression [1, 6] [%] | % p38α mRNA EXPRESSION [2, 6] [%] | also measured
1 | AGGTGCTCAGGACTCCATCT (chimeric deoxy gapped, phosphorothioate, further chemistry not given here) [ISIS 100876] | 93 | 77 |  |  | 
2 | AGTCAAAGACTGAATATAGT (eA*eG*eT*e[5mC]*eA*dA*dA*dG*dA*d[5mC]*dT*dG*dA*dA*dT*eA*eT*eA*eG*eT; antisense) [ISIS 100871] | 96 | 57 |  |  | 
3 | ATGGACGTGGCCGGCGTGAA (antisense eAeTeGeGeA*d[5mC]*dG*dT*dG*dG*d[5mC]*d[5mC]*dG*dG*d[5mC]*eGeTeGeAeA) [ISIS 107872] |  |  | 57 | 123 | % p38β mRNA Expression [1, 3]: 71%; % p38β mRNA Expression [1, 4]: 13%; % p38β mRNA Expression [1, 5]: 22%
4 | CACCGCCACCTTCTGGCGCA (antisense e[5mC]eAe[5mC]e[5mC]eG*d[5mC]*d[5mC]*dA*d[5mC]*d[5mC]*dT*dT*d[5mC]*dT*dG*eGe[5mC]eGe[5mC]eA) [ISIS 107870] |  |  | 74 | 97 | 
5 | CACGTAGCCTGTCATTTCAT (chimeric deoxy gapped, phosphorothioate, further chemistry not given here) [ISIS 100868] | 60 | 47 |  |  | 
6 | CAGGAATTGAACGTGCTCGT (antisense e[5mC]eAeGeGeA*dA*dT*dT*dG*dA*dA*d[5mC]*dG*dT*dG*e[5mC]eTe[5mC]eGeT) [ISIS 107873] |  |  | 58 | 120 | % p38β mRNA Expression [1, 3]: 69%; % p38β mRNA Expression [1, 4]: 41%; % p38β mRNA Expression [1, 5]: 23%
7 | CAGTTGAGCATGATCTCAGG (antisense e[5mC]eAeGeTeT*dG*dA*dG*d[5mC]*dA*dT*dG*dA*dT*d[5mC]*eTe[5mC]eAeGeG) [ISIS 107876] |  |  | 127 | 137 | 
8 | CATCATCAGGATCGTGGTAC (chimeric deoxy gapped, phosphorothioate, further chemistry not given here) [ISIS 100873] | 70 | 34 |  |  | % p38α mRNA EXPRESSION ([2]; dose 50 nM): 19%; % p38α mRNA EXPRESSION ([2]; dose 100 nM): 12%; % p38α mRNA EXPRESSION ([2]; dose 200 nM): 8%
9 | CATCCCACTGACCAAATATC (chimeric deoxy gapped, phosphorothioate, further chemistry not given here) [ISIS 100869] | 100 | 61 |  |  | 
10 | CTCACAGTCTTCATTCACAG (chimeric deoxy gapped, phosphorothioate, further chemistry not given here) [ISIS 100867] | 33 | 58 |  |  | 
11 | CTGAGACATTTTCCAGCGGC (phosphorothioate gapmer, further chemistry not given here) [ISIS 100860] | 71 | 73 |  |  | 
12 | GCAACAAGAGGCACTTGAAT (eG*e[5mC]*eA*eA*e[5mC]*dA*dA*dG*dA*dG*dG*d[5mC]*dA*d[5mC]*dT*eT*eG*eA*eA*eT; antisense) [ISIS 100877] | 95 | 47 |  |  | 
13 | GGCACAAAGCTGATGACTTC (chimeric deoxy gapped, phosphorothioate, further chemistry not given here) [ISIS 100875] | 90 | 39 |  |  | % p38α mRNA EXPRESSION ([2]; dose 50 nM): 30%; % p38α mRNA EXPRESSION ([2]; dose 100 nM): 13%; % p38α mRNA EXPRESSION ([2]; dose 200 nM): 8%
